These results are taken from PubChem BioAssay (NCI).

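Step 1: Grow cells in 96-well plates. Step 2: Expose to compound for 48 hours at 5 concentrations. Step 3: Interpolate endpoints linearly; if unreached, use highest concentration. GI50 marks 50% less growth. TGI is the concentration that stops growth completely.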 Bounds are passed on as bounds.

Test in all cases: NCI-60 cell line screen, 48 h
The subject of experiment [1] is SK-MEL-2 melanoma.
For experiment [2], the system named is K-562 leukemia.
Experiment [3] concerns MDA-MB-231 breast.
For experiment [4], the system named is HCT-116 colon.
The test system of experiment [5] is HOP-62 NSCLC.
In experiment [6] the test system is MDA-MB-435.
The subject of experiment [7] is CAKI-1 renal.
The subject of experiment [8] is SW-620 colon.
For experiment [9], the system named is OVCAR-5 ovarian.
The test system of experiment [10] is KM12 colon.

On to H-QIYKKYRTWYRKAWKVLGKV-NH2, for which the GI50 in experiment [1] is 16.5 µM; in [2], 3.21 µM; in experiment [3], 4.35 µM; in experiment [4] it was 10.8 µM; in experiment [5] it was 5.15 µM; in experiment [6], 5.75 µM. Further, the GI50 in experiment [7] is 3.89 µM; in experiment [8], 13 µM; in experiment [9] it was 8.79 µM; in experiment [10] it was 2.97 µM. The TGI in experiment [1] is 49.8 µM; in [2], over 100 µM; in [3], 17.9 µM; in experiment [4], 77.1 µM; in experiment [5] it was over 100 µM; in experiment [6] it was 36.9 µM. The TGI was 19 µM in [7], 43.6 µM in experiment [8], 22.5 µM in experiment [9] and 9.37 µM in [10].

Turning to `CC1=C(N2CC2)C(=O)c2ccccc2C1=O`, the TGI in [1] was 4.06 µM; in experiment [2], 3.5 µM; in experiment [3], 32.8 µM; in [4] it was 12 µM; in experiment [5], 3.21 µM; in experiment [6], 2.84 µM. Besides, the TGI in experiment [7] worked out at 1.79 µM; in [8], 1.68 µM; in [9], 1.69 µM; in experiment [10], 2.64 µM.

Regarding `O=C(/C=C/c1ccco1)c1ccc(Nc2nc(Nc3ccc(F)cc3)nc(Nc3ccc(F)cc3)n2)cc1`, the GI50 in [1] is 39 µM; in experiment [2], 10.8 µM; in experiment [3] it was 23.7 µM; in experiment [4] it was 21 µM; in experiment [5], 57.4 µM; in [6], 16.6 µM. For the same compound, the GI50 in experiment [7] is 26.7 µM; in experiment [8], 19 µM; in [9] it was 47.6 µM; in [10], 13.3 µM. In addition, the TGI was over 100 µM in experiment [1]; 46 µM in [2]; over 100 µM in experiment [3]; over 100 µM in experiment [4]; over 100 µM in experiment [5]; 74.4 µM in experiment [6]. The TGI in experiment [7] was 60.5 µM; in [8] it was over 100 µM; in experiment [9], over 100 µM; in experiment [10], over 100 µM.

On to `COc1cc(/C=N/NC(=O)c2ccccc2Nc2cccc(C(F)(F)F)c2)cc(OC)c1OC`, for which the GI50 in experiment [1] is 9.63 µM; in [2] it was 2.52 µM; in experiment [3], 6.33 µM; in [4] it was 2.48 µM; in experiment [5], 3.23 µM; in [6], 0.476 µM. Besides, the GI50 is 1.4 µM in experiment [7], 1.71 µM in experiment [8], 11.8 µM in [9] and 1.29 µM in [10]. Besides, the TGI in experiment [1] is 33.2 µM; in experiment [2], over 37.2 µM; in [3], 20.5 µM; in experiment [4] it was 6.4 µM; in [5], 11 µM; in [6], 1.67 µM. The TGI came to 4.71 µM in experiment [7], 6.36 µM in [8], 33.1 µM in experiment [9] and 4.17 µM in experiment [10].

Take `C/C(=N/O)c1ccc(Nc2cc(-n3ccnc3)c3ccccc3n2)cc1`: the GI50 in experiment [1] is 38.5 µM; in experiment [2] it was 3.27 µM; in experiment [3], 8.81 µM; in experiment [4], 14.6 µM; in experiment [5], 53.2 µM; in [6], 36.4 µM. Also, the GI50 was 26.6 µM in experiment [7], 41.8 µM in [8], 86.6 µM in [9] and 2.64 µM in [10]. Also, the TGI is over 100 µM in experiment [1]; over 100 µM in experiment [2]; 38.2 µM in experiment [3]; 38.9 µM in experiment [4]; over 100 µM in experiment [5]; over 100 µM in experiment [6]. Also, the TGI was over 100 µM in experiment [7], over 100 µM in [8], over 100 µM in experiment [9] and 18.5 µM in [10].

Regarding `NC(=O)c1ccc(N(C(N)=O)c2c(F)cccc2F)nc1-c1ccc(F)cc1F`, the GI50 in experiment [1], in [2], in experiment [3], in experiment [4], in experiment [5] and in experiment [6] was over 100 µM throughout. Also, the GI50 in experiment [7], in experiment [8], in [9] and in experiment [10] was over 100 µM each time. For the same compound, the TGI in experiment [1], in experiment [2], in experiment [3], in [4], in [5] and in experiment [6] was over 100 µM throughout. In addition, the TGI in experiment [7], in experiment [8], in experiment [9] and in experiment [10] was over 100 µM throughout.

With `Oc1ccc(Cl)cc1/C=N\NC(=S)N/N=C/c1cc(Cl)ccc1O`, the GI50 in experiment [1] was 1.87 µM; in [2], 2.63 µM; in experiment [3], 1.84 µM; in [4] it was 1.42 µM; in experiment [5], 2.47 µM; in experiment [6] it was 3.74 µM. The GI50 is 1.24 µM in [7], 4.41 µM in experiment [8], 5.04 µM in [9] and 2.68 µM in [10]. Besides, the TGI in [1] was 10.1 µM; in experiment [2], over 100 µM; in [3], 27.6 µM; in [4] it was 18.5 µM; in experiment [5], over 100 µM; in experiment [6] it was over 100 µM. Moreover, the TGI was 8.48 µM in experiment [7], over 100 µM in experiment [8], over 100 µM in experiment [9] and 44.7 µM in experiment [10].

Regarding `CCN(CC)Cc1cc(Nc2c3ccccc3nc3cc(Cl)ccc23)ccc1O`, the GI50 in experiment [1] was 1.75 µM; in experiment [2], 1.69 µM; in [3] it was 1.73 µM; in experiment [4] it was 0.967 µM; in experiment [5], 1.73 µM; in experiment [6] it was 1.65 µM. In addition, the GI50 in [7] was 1.87 µM; in experiment [8], 1.18 µM; in experiment [9] it was 2.42 µM; in [10] it was 1.59 µM. Moreover, the TGI in experiment [1] was 3.36 µM; in experiment [2] it was 39 µM; in experiment [3], 3.59 µM; in experiment [4], 2.67 µM; in [5], 3.16 µM; in [6], 3.34 µM. Besides, the TGI in [7] was 4.73 µM; in [8] it was 3.63 µM; in experiment [9] it was 6.66 µM; in [10], 3.77 µM.

On to `O=C(Nc1cccc(C(F)(F)F)c1)c1cc2ccccc2cc1O`, for which the GI50 in experiment [1] is 2.7 µM; in experiment [2], 0.487 µM; in [3], 2.08 µM; in experiment [4], 1.15 µM; in experiment [5], 2.61 µM; in experiment [6], 1.37 µM. Moreover, the GI50 in [7] was 0.345 µM; in experiment [8], 2.51 µM; in experiment [9], 3.5 µM; in experiment [10], 2.45 µM. In addition, the TGI in experiment [1] is 18.7 µM; in experiment [2], over 100 µM; in experiment [3] it was 7.08 µM; in [4], 10.1 µM; in [5], 11.8 µM; in experiment [6], 4.72 µM. Also, the TGI in experiment [7] is 1.22 µM; in experiment [8], over 100 µM; in experiment [9], over 100 µM; in experiment [10], 8.44 µM.

As for `Cc1ccc(-c2n[nH]c(=O)c3noc(-c4ccc(C)cc4)c23)cc1`, the GI50 in experiment [1] is 0.451 µM; in experiment [2], 0.383 µM; in experiment [3], 1.77 µM; in experiment [4], 0.557 µM; in experiment [5], 0.835 µM; in experiment [6], 0.235 µM. The GI50 in experiment [7] is 2.27 µM; in experiment [8], 0.427 µM; in [9], 5.99 µM; in [10] it was 0.713 µM. Moreover, the TGI in [1] is 9.49 µM; in experiment [2], over 100 µM; in experiment [3], 39.8 µM; in experiment [4], 75.5 µM; in experiment [5], 13.4 µM; in experiment [6], 0.651 µM. The TGI in experiment [7], in experiment [8], in experiment [9] and in experiment [10] was over 100 µM each time.

As to `Cc1cc2nc(-c3c(F)cccc3Cl)n(Cc3c(F)cccc3Cl)c2cc1C`, the GI50 was 50.2 µM in [1]; 39.4 µM in experiment [2]; 10.4 µM in experiment [3]; 6.43 µM in experiment [4]; 13.9 µM in experiment [5]; 7.33 µM in [6]. Moreover, the GI50 in experiment [7] is 2.92 µM; in [8] it was 11.8 µM; in experiment [9] it was 15.9 µM; in experiment [10], 10.5 µM. Besides, the TGI in experiment [1] is over 100 µM; in [2], over 100 µM; in experiment [3], 23.1 µM; in [4], 20.3 µM; in experiment [5] it was 29.1 µM; in [6] it was 22.7 µM. For the same compound, the TGI in [7] was determined as 14.6 µM; in experiment [8], 32.4 µM; in experiment [9] it was 34.1 µM; in experiment [10], 37.7 µM.

Take `O=C(/C=C/c1cccc2ccccc12)Nc1ncc(Cc2ccccc2)s1`: the GI50 in [1] is 1.41 µM; in experiment [2], 0.397 µM; in experiment [3], 2 µM; in experiment [4] it was 0.46 µM; in [5], 0.885 µM; in experiment [6], 0.247 µM. In addition, the GI50 in experiment [7] was 0.609 µM; in [8] it was 0.737 µM; in experiment [9], 1.98 µM; in experiment [10], 0.866 µM. Besides, the TGI in [1] was over 100 µM; in [2] it was over 100 µM; in experiment [3] it was over 40.3 µM; in experiment [4], 11.6 µM; in experiment [5], 4.56 µM; in experiment [6], 0.725 µM. Also, the TGI in experiment [7] is 3.71 µM; in experiment [8] it was over 100 µM; in experiment [9], over 100 µM; in [10] it was over 100 µM.

`COc1ccc(-c2nc(C(=O)c3ccccc3)n(CC(=O)c3ccc(Cl)cc3)c2-c2ccc(OC)cc2)cc1`: the GI50 in experiment [1], in experiment [2], in [3], in experiment [4], in experiment [5] and in [6] was over 100 µM each time. The GI50 in experiment [7], in experiment [8], in experiment [9] and in [10] was over 100 µM each time. Also, the TGI in [1], in experiment [2], in experiment [3], in experiment [4], in [5] and in experiment [6] was over 100 µM throughout. Also, the TGI in experiment [7], in experiment [8], in experiment [9] and in [10] was over 100 µM throughout.

For `CNC(c1ccncc1)C(NC)c1ccncc1` (centres undefined), the TGI in experiment [1], in experiment [2], in experiment [3], in experiment [4], in experiment [5] and in experiment [6] was over 100 µM throughout. The TGI in experiment [7], in experiment [8], in [9] and in [10] was over 100 µM in each case.

Turning to `CCCOC(=O)C1C2CCC(O2)C1C(=O)O` (centres undefined), the TGI in experiment [1], in experiment [2], in experiment [3], in experiment [4], in experiment [5] and in experiment [6] was over 100 µM in each case. Further, the TGI in experiment [7], in [8], in [9] and in experiment [10] was over 100 µM throughout.

Turning to `COc1cccc(NC2=C(Cl)C(=O)N(Cc3ccc(Cl)cc3)C2=O)c1`, the GI50 in experiment [1] is 12.5 µM; in [2] it was 0.801 µM; in experiment [3], 2.15 µM; in [4], 1.59 µM; in [5] it was 2.4 µM; in experiment [6], 0.234 µM. Moreover, the GI50 in experiment [7] was 2.25 µM; in experiment [8], 0.847 µM; in [9], 10 µM; in experiment [10] it was 2.34 µM. For the same compound, the TGI in [1] was over 23.8 µM; in [2], over 46.3 µM; in [4] it was 13.5 µM; in [5], 12.3 µM; in experiment [6], 1.61 µM; in [7], 17.5 µM. The figures for the TGI in [8], in [9] and in experiment [10] were 14.7 µM, 43.2 µM and 30.5 µM, respectively.
